Experimental data taken from publication PMC9501035, “Synthesis of Novel N-Methylmorpholine-Substituted Benzimidazolium Salts as Potential α-Glucosidase Inhibitors” (Molecules, 2022).
Where “and” joins values, the source holds several entries; their conditions need not be identical. Equal entries are not always repeated.

Target: α-glucosidase
Assay: not given
Settings: benzimidazole-bearing Schiff bases; cited from earlier work

| SMILES | IC50 [µM] |
| --- | --- |
| COc1ccc(/C(CSc2nc3ccccc3[nH]2)=N\N=C\c2ccc(OC)cc2O)cc1 [I] | 2.2 ± 0.1 |

Same assay, conditions: benzoylarylbenzimidazoles; cited from earlier work

| SMILES | IC50 [µM] |
| --- | --- |
| O=C(c1ccccc1)c1ccc2nc(-c3ccc(O)cc3)[nH]c2c1 [II] | 11.02 ± 0.04 |

Same assay, conditions: structural hybrids with piperazine and morpholine; cited from earlier work

| SMILES | IC50 [µM] |
| --- | --- |
| CN1CCN(c2ccc3[nH]c(-c4ccc(O)cc4)nc3c2)CC1 [IV X=NMe] | 2.25 ± 0.28 |
| Oc1ccc(-c2nc3cc(N4CCOCC4)ccc3[nH]2)cc1 [IV X=O] | 3.4 ± 0.86 |

Target: α-glucosidase
Assay: In vitro α-glucosidase inhibition (spectroscopic method)
Format: biochemical
Settings: means of experiments, n = 3
Description: α-Glucosidase inhibitions were determined following a modified spectroscopic method. The detailed protocol was already reported. Each experiment was carried out thrice, and percentage inhibitions were determined with the help of the following expression, followed by the determination of IC50 values:% Inhibition = [(Acontrol − Asample)/Acontrol] × 100 where ‘A’ stands for absorbance.

| IC50 | SMILES |
| --- | --- |
| 55 ± 0.14 µM | O=C(C[n+]1c(CN2CCOCC2)n(Cc2ccccc2)c2ccccc21)Nc1ccccc1Br [Compound 5c, 1-Benzyl-3-(2-((2-bromophenyl)amino)-2-oxoethyl)-2-(morpholinomethyl)-1H-benzo[d]imidazol-3-ium chloride] |
| 65 ± 0.015 µM | COc1ccc(NC(=O)C[n+]2c(CN3CCOCC3)n(Cc3ccccc3)c3ccccc32)cc1 [Compound 5l, 1-Benzyl-3-(2-((4-methoxyphenyl)amino)-2-oxoethyl)-2-(morpholinomethyl)-1H-benzo[d]imidazol-3-ium chloride] |
| 30 ± 0.11 µM | O=C(C[n+]1c(CN2CCOCC2)n(Cc2ccccc2)c2ccccc21)Nc1ccccc1[N+](=O)[O-] [Compound 5e, 1-Benzyl-3-(2-((2-nitrophenyl)amino)-2-oxoethyl)-2-(morpholinomethyl)-1H-benzo[d]imidazol-3-ium chloride] |
| 25 ± 0.106 µM | O=C(C[n+]1c(CN2CCOCC2)n(Cc2ccccc2)c2ccccc21)Nc1ccc([N+](=O)[O-])cc1 [Compound 5g, 1-Benzyl-3-(2-((4-nitrophenyl)amino)-2-oxoethyl)-2-(morpholinomethyl)-1H-benzo[d]imidazol-3-ium chloride] |
| 88 ± 0.08 µM | Cc1ccc(NC(=O)C[n+]2c(CN3CCOCC3)n(Cc3ccccc3)c3ccccc32)cc1 [Compound 5j, 1-Benzyl-3-(2-((4-methylphenyl)amino)-2-oxoethyl)-2-(morpholinomethyl)-1H-benzo[d]imidazol-3-ium chloride] |
| 15 ± 0.03 µM | O=C(C[n+]1c(CN2CCOCC2)n(Cc2ccccc2)c2ccccc21)Nc1ccc(Br)cc1 [Compound 5d, 1-Benzyl-3-(2-((4-bromophenyl)amino)-2-oxoethyl)-2-(morpholinomethyl)-1H-benzo[d]imidazol-3-ium chloride] |
| 21 ± 0.076 µM | Cc1ccccc1NC(=O)C[n+]1c(CN2CCOCC2)n(Cc2ccccc2)c2ccccc21 [Compound 5h, 1-Benzyl-3-(2-((2-methylphenyl)amino)-2-oxoethyl)-2-(morpholinomethyl)-1H-benzo[d]imidazol-3-ium chloride] |
| 26 µM and 25 µM | COc1ccccc1NC(=O)C[n+]1c(CN2CCOCC2)n(Cc2ccccc2)c2ccccc21 [Compound 5k, 1-Benzyl-3-(2-((2-methoxyphenyl)amino)-2-oxoethyl)-2-(morpholinomethyl)-1H-benzo[d]imidazol-3-ium chloride] |
| 35 ± 0.02 µM | O=C(C[n+]1c(CN2CCOCC2)n(Cc2ccccc2)c2ccccc21)Nc1ccc(Cl)cc1 [Compound 5b, 1-Benzyl-3-(2-((4-chlorophenyl)amino)-2-oxoethyl)-2-(morpholinomethyl)-1H-benzo[d]imidazol-3-ium chloride] |
| 110 ± 0.113 µM | O=C(C[n+]1c(CN2CCOCC2)n(Cc2ccccc2)c2ccccc21)Nc1ccccc1 [Compound 5m, 1-Benzyl-2-(morpholinomethyl)-3-(2-oxo-2-(phenylamino)ethyl)-1H-benzo[d]imidazol-3-ium chloride] |
| 19 ± 0.06 µM | O=C(C[n+]1c(CN2CCOCC2)n(Cc2ccccc2)c2ccccc21)Nc1cccc([N+](=O)[O-])c1 [Compound 5f, 1-Benzyl-3-(2-((3-nitrophenyl)amino)-2-oxoethyl)-2-(morpholinomethyl)-1H-benzo[d]imidazol-3-ium chloride] |
| 47 ± 0.05 µM | Cc1cccc(NC(=O)C[n+]2c(CN3CCOCC3)n(Cc3ccccc3)c3ccccc32)c1 [Compound 5i, 1-Benzyl-3-(2-((3-methylphenyl)amino)-2-oxoethyl)-2-(morpholinomethyl)-1H-benzo[d]imidazol-3-ium chloride] |
| 50 ± 0.04 µM | O=C(C[n+]1c(CN2CCOCC2)n(Cc2ccccc2)c2ccccc21)Nc1ccccc1Cl [Compound 5a, 1-Benzyl-3-(2-((2-chlorophenyl)amino)-2-oxoethyl)-2-(morpholinomethyl)-1H-benzo[d]imidazol-3-ium chloride] |
